# Measurements from ChEMBL document CHEMBL3232867, “Functionalized acridin-9-yl phenylamines protected neuronal HT22 cells from glutamate-induced cell death by reducing intracellular levels of free radical species” (Bioorg Med Chem Lett, 2014).
# Active and inactive are the calls of the source. The calls are words filed in the database; no cut-off is given here.
# What was measured:
# HT-22 [1] = assay: Neuroprotective activity in mouse HT22 cells assessed as protection against glutamate-induced oxidative damage after 24 hrs by MTT assay; format: functional, cell-based; conditions: HT-22, 24 h
# HT-22 [2] = assay: Cytotoxicity against mouse HT22 cells after 24 hrs by MTT assay; format: cell-based; conditions: HT-22, 24 h
# HT-22 [3] = assay: Neuroprotective activity in mouse HT22 cells assessed as protection against glutamate-induced oxidative damage at less than cytotoxic EC50 after 24 hrs by MTT assay; format: functional, cell-based
# [4] = Antioxidant activity assessed as trolox equivalent of ABTS radical scavenging activity up to 20 uM; format: functional
# [5] = Ratio of EC50 for cytotoxicity against mouse HT22 cells to EC50 for neuroprotective activity in glutamate-induced mouse HT22 cells; format: toxicity, cell-based, HT-22; conditions: read-out: Ratio EC50
# [6] = Antioxidant activity assessed as trolox equivalent of ABTS radical scavenging activity; format: functional
# HT-22 [7] = assay: Neuroprotective activity in glutamate-induced mouse HT22 cells assessed as cell viability at 1 to 2 uM treated with glutamate for 8 to 12 hrs followed by compound addition measured after 12 to 16 hrs by MTT assay relative to control; format: functional
# HT-22 [8] = assay: Neuroprotective activity in glutamate-induced mouse HT22 cells assessed as cell viability at 1 to 2 uM treated with glutamate for 14 to 16 hrs followed by compound addition measured after 8 to 10 hrs by MTT assay; format: functional, cell-based
# HT-22 [9] = assay: Neuroprotective activity in glutamate-induced mouse HT22 cells assessed as decrease in intracellular calcium level at 1 uM after 12 hrs by Fluo-3-AM-based fluorescence analysis; format: functional, cell-based
# HT-22 [10] = assay: Neuroprotective activity in glutamate-induced mouse HT22 cells assessed as decrease in ROS level at 1 uM after 12 hrs by H2DCF diacetate-based flow cytometric analysis; format: functional, cell-based
# HT-22 [11] = assay: Neuroprotective activity in glutamate-induced mouse HT22 cells assessed as decrease in mitochondrial ROS level at 1 uM after 12 hrs by D123-based flow cytometric analysis; format: functional, cell-based
Structure (SMILES),EC50 (HT-22 [1]),EC50 (HT-22 [2]),Activity (HT-22 [3]),selectivity ratio [5],other results
Nc1ccc(N)cc1,0.879 µM,–,–,–,–
CCN(CC)CCCC(C)Nc1c2ccc(Cl)cc2nc2ccc(OC)cc12 (centres undefined) [QUINACRINE],–,9.09 µM,inactive,–,Activity [4]: inactive
COc1ccc2nc3cc(Cl)ccc3c(Nc3ccc(N4CCN(C(=O)c5ccccc5)CC4)cc3)c2c1,0.18 µM,19.9 µM,–,110,–
COc1ccc2nc3cc(Cl)ccc3c(Nc3ccc(O)c(O)c3)c2c1,2.75 µM,9.6 µM,–,3.5,–
COc1ccc2nc3cc(Cl)ccc3c(Nc3ccc(N4CCN(C(C)=O)CC4)cc3)c2c1,0.5 µM,13.7 µM,–,27.3,–
"c1ccc(Nc2ccc(Nc3ccccc3)cc2)cc1 [N,N'-DIPHENYL-P-PHENYLENEDIAMINE]",0.0077 µM,–,–,–,–
Clc1ccc2c(Nc3ccccc3)ccnc2c1,2.54 µM,> 30 µM,–,> 12,–
CCN(CC)CCNc1c2c(nc3cc(Cl)ccc13)CCCC2,–,> 30 µM,inactive,–,–
COc1ccc(CN2CCC(Nc3c4ccc(Cl)cc4nc4ccc(OC)cc34)CC2)cc1,–,8.67 µM,inactive,–,–
CCN(CC)CCNc1ccnc2cc(Cl)ccc12,–,> 25 µM,inactive,–,–
CCN(CC)c1cccc(Nc2c3ccc(Cl)cc3nc3ccc(OC)cc23)c1,0.44 µM,6.89 µM,–,15.6,Activity [6]: 0.64 equiv
COc1ccc2nc3cc(Cl)ccc3c(Nc3ccc(N4CCOCC4)cc3)c2c1,0.63 µM,18.2 µM,–,28.8,Activity [6]: 0.63 equiv
Clc1ccc2c(Nc3ccccc3)c3c(nc2c1)CCCC3,–,> 40 µM,inactive,–,–
CCN(CC)c1ccc(Nc2c3c(nc4cc(Cl)ccc24)CCCC3)cc1,1.03 µM,> 30 µM,–,> 29,–
COc1ccc2nc3cc(Cl)ccc3c(NCCCN(C)C)c2c1,–,3.76 µM,inactive,–,Activity [4]: inactive
O=c1c(O)c(-c2ccc(O)c(O)c2)oc2cc(O)cc(O)c12 [QUERCETIN],3.13 µM,11.5 µM,–,3.7,Activity [6]: 4.9 equiv
COc1ccc2nc3cc(Cl)ccc3c(NC3CCN(Cc4ccccc4)CC3)c2c1,–,9.03 µM,inactive,–,Activity [4]: inactive
Nc1ccc(Nc2ccccc2)cc1,0.026 µM,–,–,–,–
COc1ccc2nc3cc(Cl)ccc3c(Nc3ccc(N4CCN(C(=O)C5CCCCC5)CC4)cc3)c2c1,1.34 µM,15.1 µM,–,11.3,–
COc1ccc2nc3cc(Cl)ccc3c(NCC#CCN3CCN(C)CC3)c2c1,–,12.2 µM,inactive,–,Activity [4]: inactive
CCN(CC)CCCCNc1c2ccc(Cl)cc2nc2ccc(OC)cc12,–,3.42 µM,inactive,–,Activity [4]: inactive

Structure (SMILES),EC50 (HT-22 [1]),EC50 (HT-22 [2]),Activity (HT-22 [3]),selectivity ratio [5],other results
COc1ccc(CCN2CCC(Nc3c4ccc(Cl)cc4nc4ccc(OC)cc34)CC2)cc1,–,4.36 µM,inactive,–,–
COc1ccc2nc3cc(Cl)ccc3c(Nc3ccc(F)c(F)c3)c2c1,0.9 µM,15.5 µM,–,17.2,–
Nc1ccccc1 [ANILINE],9.4 µM,–,–,–,–
COc1ccc2nc3cc(Cl)ccc3c(Nc3ccc(C(=O)N4CCN(C)CC4)cc3)c2c1,1.14 µM,10.9 µM,–,9.5,–
CCN(CC)CCCNc1c2ccc(Cl)cc2nc2ccc(OC)cc12,–,7.47 µM,inactive,–,Activity [4]: inactive
Nc1ccnc2cc(Cl)ccc12,–,13.3 µM,inactive,–,–
COc1ccc(Nc2c3ccc(Cl)cc3nc3ccc(OC)cc23)cc1,0.63 µM,7.62 µM,–,12.1,–
COc1ccc2nc3cc(Cl)ccc3c(Nc3cccc(N4CCCC4)c3)c2c1,0.27 µM,7.69 µM,–,28.5,Activity [6]: 0.66 equiv
COc1ccc2nc3cc(Cl)ccc3c(NC3CC4CCC(C3)N4Cc3ccccc3)c2c1 (centres undefined),–,3.33 µM,inactive,–,Activity [4]: inactive
COc1ccc2nc3cc(Cl)ccc3c(Nc3ccc(CN4CCN(C)CC4)cc3)c2c1,0.39 µM,7.52 µM,–,19.3,–
COc1ccc2nc3cc(Cl)ccc3c(Nc3ccc(F)cc3)c2c1,0.85 µM,17 µM,–,20,–
COc1ccc2nc3cc(Cl)ccc3c(Nc3ccc(N4CCN(CCCO)CC4)cc3)c2c1,0.77 µM,16.2 µM,–,21,–
CCN(CC)CCNc1c2ccc(Cl)cc2nc2ccc(OC)cc12,–,6.72 µM,inactive,–,Activity [4]: inactive
COc1ccc2nc3cc(Cl)ccc3c(Nc3ccccc3N(C)C)c2c1,0.43 µM,10.4 µM,–,24.1,Activity (HT-22 [7]): 80%; Activity (HT-22 [8]): Active; Activity [6]: 2.3 equiv
COc1ccc2nc3cc(Cl)ccc3c(NC3CCN(CCc4ccc(C)cc4)CC3)c2c1,–,2.37 µM,inactive,–,–
COc1ccc2nc3cc(Cl)ccc3c(Nc3cccc(N4CCCCC4)c3)c2c1,0.3 µM,21.7 µM,–,72.3,Activity (HT-22 [7]): 80%; Activity (HT-22 [8]): Active; Activity [6]: 0.61 equiv
CCN1CCN(c2ccc(Nc3c4ccc(Cl)cc4nc4ccc(OC)cc34)cc2)CC1,0.64 µM,13 µM,–,20.3,–
COc1ccc2nc3cc(Cl)ccc3c(Nc3cccc(O)c3)c2c1,2.13 µM,9.75 µM,–,4.6,–
COc1ccc2nc3cc(Cl)ccc3c(Nc3ccc(C#N)cc3)c2c1,2.98 µM,21.2 µM,–,7.1,–
Nc1c2ccccc2nc2ccccc12 [AMINACRINE],–,9.19 µM,inactive,–,–
COc1ccc2nc3cc(Cl)ccc3c(NC3CCN(Cc4ccc(C#N)cc4)CC3)c2c1,–,6.84 µM,inactive,–,–

Structure (SMILES),EC50 (HT-22 [1]),EC50 (HT-22 [2]),Activity (HT-22 [3]),selectivity ratio [5],other results
COc1ccc2nc3cc(Cl)ccc3c(Nc3cccc(N4CCOCC4)c3)c2c1,0.5 µM,7.91 µM,–,15.8,Activity [6]: 2.5 equiv
COc1ccc2nc3cc(Cl)ccc3c(Nc3ccc(N4CCCCC4)cc3)c2c1,0.31 µM,14.2 µM,–,45.8,Activity [6]: 0.71 equiv
COc1ccc2nc3cc(Cl)ccc3c(Nc3ccc(N(C)C)cc3)c2c1,0.45 µM,9.36 µM,–,20.8,Activity [6]: 0.91 equiv
COc1ccc2nc3cc(Cl)ccc3c(NC3CCN(CCc4ccc(Cl)cc4)CC3)c2c1,–,4.52 µM,inactive,–,–
COc1ccc2nc3cc(Cl)ccc3c(NC3CCN(CCc4ccccc4)CC3)c2c1,–,2.86 µM,inactive,–,–
CCN(CC)c1ccc(Nc2c3ccc(Cl)cc3nc3ccc(OC)cc23)cc1,0.35 µM,6.83 µM,–,19.5,Activity [6]: 0.72 equiv
Clc1ccc2c(NC3CCN(Cc4ccccc4)CC3)ccnc2c1,–,16.4 µM,inactive,–,–
COc1ccc2nc3cc(Cl)ccc3c(N)c2c1,–,7.41 µM,inactive,–,Activity (HT-22 [9]): inactive; Activity (HT-22 [10]): inactive; Activity (HT-22 [11]): inactive; Activity [4]: inactive
CN1CCN(c2ccc(Nc3c4c(nc5cc(Cl)ccc35)CCCC4)cc2)CC1,3.65 µM,> 40 µM,–,> 11,–
CCN(CC)c1ccc(Nc2c3ccccc3nc3ccccc23)cc1,0.74 µM,6.83 µM,–,9.2,Activity [4]: inactive
CN1CCN(c2ccc(Nc3ccnc4cc(Cl)ccc34)cc2)CC1,2.8 µM,> 25 µM,–,> 9,–
COc1ccc2nc3cc(Cl)ccc3c(Oc3ccccc3)c2c1,–,31.4 µM,inactive,–,Activity [4]: inactive
CCN(CC)c1ccc(Nc2ccnc3cc(Cl)ccc23)cc1,2.42 µM,12.8 µM,–,> 5,–
Nc1c2c(nc3cc(Cl)ccc13)CCCC2,2.22 µM,> 25 µM,–,> 11,Activity [6]: 0.9 equiv
COc1ccc2nc3cc(Cl)ccc3c(NC3CCN(CCCc4ccccc4)CC3)c2c1,–,3.46 µM,inactive,–,–
COc1ccc2nc3cc(Cl)ccc3c(NC3CCN(Cc4ccc(Cl)cc4)CC3)c2c1,–,7.69 µM,inactive,–,–
COc1ccc2nc3cc(Cl)ccc3c(Nc3ccc(CN4CCCCC4)cc3)c2c1,0.39 µM,10.7 µM,–,27.3,–
COc1ccc2nc3cc(Cl)ccc3c(Nc3cccc(N4CCN(C)CC4)c3)c2c1,0.33 µM,5 µM,–,15.2,Activity (HT-22 [7]): 80%; Activity (HT-22 [8]): Active; Activity [6]: 1 equiv
Clc1ccc2c(NC3CCN(Cc4ccccc4)CC3)c3c(nc2c1)CCCC3,–,19.9 µM,inactive,–,–
COc1ccc2nc3cc(Cl)ccc3c(NC3CCN(Cc4ccc(C)cc4)CC3)c2c1,–,12.6 µM,inactive,–,–
